Test results: article PMC9821961, “Ring-Modified Histidine-Containing Cationic Short Peptides Exhibit Anticryptococcal Activity by Cellular Disruption” (Molecules, 2022)
Values after ≈ are worked out from the molar mass of the structure shown.

What was measured:
[1] = test system: Red blood cells (RBCs); settings: for % Hemolysis HC10 / % Hemolysis HC50: red cells of human
Description: Human blood in 10% citrate phosphate dextrose was obtained from Government Hospital, Chandigarh, India. Red blood cells (RBCs) were harvested by spinning at 1000× g for 5 min followed by washing with PBS 3–5 times. The packed cell volume was obtained and utilized to make a 0.8% (v/v) suspension of RBCs in PBS. […] The plate was incubated at 37 °C for 60 min followed by centrifugation at 1000× g for 5 min at 25 °C. The supernatant (100 μL) was transferred to a fresh microtiter plate and absorbance was recorded at 414 nm (Varioskan LUX multimode microplate reader, Thermo Scientific, Waltham, MS, USA) to analyze RBC lysis. Untreated RBCs in PBS and lysed RBCs in 0.1% Triton X-100 were used as negative and positive controls, respectively [29]. Percent hemolysis was calculated using following equation [38]. (3) % Hemolysis=Absorbance of treated sample−Absorbance of negative control/Absorbance of positive control−Absorbance of negative control×100

[2] = test system: C. neoformans (ATCC350) cells; assay: CLSM PI uptake assay; format: cell-based, Cryptococcus neoformans; settings: at MIC, 12 h, then PI
Description: After incubation, treated and untreated cells were centrifuged at 2000× g for 10 min at 4 °C and suspended in cold PBS and followed by 2–3 washings with PBS. The cells were then incubated with PI (1.49 μM) for 1 h at room temperature with constant shaking (150× g rpm), and later harvested by centrifugation and suspended in PBS. Then, the cells were examined using confocal microscopy (Olympus Fluoview™ FV1000 SPD; Olympus, Tokyo, Japan) with a wavelength of >560 nm for PI. C. neoformans cells without treatment of active peptides served as a control.

[3] = test system: C. neoformans; assay: microbe, parasite or virus in culture; format: cell-based, Cryptococcus neoformans; settings: 48 h
How it was run: (§1)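 Broth microdilution per CLSI was run on peptides serially diluted two-fold from DMSO stocks. Fungi (C. neoformans, C. glabrata) were tested at 10^3 CFU/mL in RPMI 1640/YPED for 48 h at 30 °C, and bacteria (S. aureus, E. faecalis) at 10^5 CFU/mL in Mueller Hinton for 24 h at 37 °C. IC50 and MIC came from OD600, with MTT staining used to visualise growth.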

[4] = test system: P. aeruginosa; assay: microbe, parasite or virus in culture; format: cell-based, Pseudomonas aeruginosa; settings: 48 h
[5] = test system: C. neoformans cells; assay: CLSM FITC-labeled peptide uptake assay; format: cell-based, Cryptococcus neoformans; settings: FITC-tagged peptide, 12 h
Description: After incubation, cells were harvested by centrifugation at 2000× g for 10 min at 4 °C and suspended in PBS and mounted on a slide for visualization under a confocal microscope with excitation and emission wavelengths of 488 nm and 515 nm, respectively.

[6] = test system: C. glabrata; assay: microbe, parasite or virus in culture; format: cell-based, Candida glabrata; settings: 48 h
How it was run: as §1

[7] = test system: C. krusei; assay: microbe, parasite or virus in culture; format: cell-based, Candida krusei; settings: 48 h
How it was run: (§2)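 Growth inhibition was measured by broth microdilution. MIC and IC50 were calculated from optical density at 600 nm after 48 h at 30 °C for Candida and Cryptococcus (10^3 CFU/mL, RPMI 1640 or YPED) and after 24 h at 37 °C for the Gram-positive bacteria (10^5 CFU/mL, Mueller Hinton).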

[8] = test system: S. pyogens; assay: microbe, parasite or virus in culture; format: cell-based, Streptococcus pyogenes; settings: 48 h
[9] = test system: C. albicans; assay: microbe, parasite or virus in culture; format: cell-based, Candida albicans; settings: 48 h
How it was run: as §2

[10] = in vitro; settings: human, HeLa cells
Description: (§3) The cells (50,000 cells/well) were seeded to the wells of the plate in Dulbecco’s Modified Eagle Medium (DMEM) supplemented with 10% fetal bovine serum at 37 °C overnight and incubated for 24 h to achieve confluency. Peptides at different concentrations of 50, 25, 12.5, 6.25, 3.12, 1.56 and 0.78 μg/mL were added to the cells in separate wells and incubated at 37 °C for 18 h. A further 20 µL MTT solution (5 mg/mL stock conc. in PBS) was added and the plate was incubated for another 3–4 h. To detect the viable cells that react with MTT to make formazan crystals, 120 μL of supernatant was removed and 100 μL DMSO was added to dissolve the crystals. Untreated cells and DMSO (10%) were used as negative and positive controls, respectively [37]. The percent viability of cells was calculated using equation:(2) % Cell viability=Av. Absorbance of treated cells/Av. Absorbance of control cells×100

[11] = test system: C. neoformans cells; assay: Internal cell morphology analysis by TEM (HRTEM, STEM); format: cell-based, Cryptococcus neoformans; settings: at MIC, 12 h
Description: The samples were prepared in a similar manner to as mentioned in the procedure for SEM sample preparation, up until the dehydration of cells with increasing gradients of ethanol. The dehydrated samples were then embedded in resin which was prepared from an epoxy embedding medium kit (Sigma, 45359-1EA-F). Increasing gradients (10%, 20%, 30%, 50%, 70% and 90%) of resin were added to the samples followed by incubation for 1–2 h at room temperature after addition of each gradient. Undiluted resin (100%) was added to the sample and incubated for 24 h at 70 °C. Semi-thin and ultrathin sections were cut with an ultramicrotome (Ultramicotome Lecia EM UC6). The sections of samples were placed on a 3.05 mm diameter and 200 mesh copper grid and stained with uranyl acetate or lead acetate, before observation under the HRTEM (FEI Technai G2 F20, Eindhoven, The Netherlands) and analysis at 120 KV.

[12] = test system: C. neoformans (ATCC350) cells; assay: CLSM DAPI uptake assay; format: cell-based, Cryptococcus neoformans; settings: at MIC, 12 h, then DAPI
Description: After incubation, treated and untreated cells were centrifuged at 2000× g for 10 min at 4 °C and suspended in cold PBS and followed by 2–3 washings with PBS. The cells were then incubated with DAPI (3.01 μM) for 10 min at room temperature with constant shaking, harvested by centrifugation and suspended in PBS. Then, the fungal cells were examined using confocal microscopy (Olympus Fluoview™ FV1000 SPD; Olympus, Tokyo, Japan) with excitation at 350 nm and emission at 470 nm.

[13] = test system: C. parapsilosis; assay: microbe, parasite or virus in culture; format: cell-based, Candida parapsilosis; settings: 48 h
How it was run: as §2

[14] = in vitro; settings: human, HEK-293 cells
Description: as §3

[15] = test system: HeLa
Description: as §3

[16] = test system: C. neoformans cells; assay: Time kill assay; settings: time-kill profile over 24 h

| Compound | Hemolytic behavior [1] | % Hemolysis HC10 [1] | % Hemolysis HC50 [1] | PI fluorescence of treated cells (CLSM) [2] | MIC [3] | IC50 [4] | MIC [4] | Fluorescence of cells incubated with FITC-labeled peptide (CLSM) [5] | IC50 [6] | MIC [6] | IC50 [7] | MIC [7] | IC50 [8] | MIC [8] | IC50 [9] | MIC [9] | CC50 at 18 h [10] | Internal morphology of treated cells (HRTEM) [11] | Morphology of treated cells (STEM) [11] | DAPI fluorescence of treated cells (CLSM) [12] | also measured |
| --- | --- | --- | --- | --- | --- | --- | --- | --- | --- | --- | --- | --- | --- | --- | --- | --- | --- | --- | --- | --- | --- |
| COC(=O)[C@H](Cc1ncn(Cc2ccccc2I)c1I)NC(=O)[C@@H](N)Cc1c[nH]c2ccccc12 [10o, Trp-His[1-(2-iodobenzyl)-5-iodo]-OMe] | non-hemolytic | 52.17 µg/mL | >100 µg/mL | prominent red fluorescence | 4.59 mg/L (≈ 6.58 µM) | >35.2 mg/L | >64.0 mg/L | prominent green fluorescence | >35.2 mg/L | >64.0 mg/L | >35.2 mg/L | >64.0 mg/L | >35.2 mg/L | >64.0 mg/L | >35.2 mg/L | >64.0 mg/L | > 100 mg/L | cell membrane was completely damaged | highly deformed and shrunken | fragmented bright blue fluorescence | IC50 [13]: >35.2 mg/L; MIC [13]: >64.0 mg/L; CC50 at 18 h [14]: > 100 mg/L; Cytotoxic nature [15]: non-cytotoxic; Time after which growth/CFUs of cryptococcal cells dropped or were inhibited [16]: 12 h |
| COC(=O)[C@H](Cc1ncn(Cc2cc(C(C)(C)C)cc(C(C)(C)C)c2)c1I)NC(=O)[C@@H](N)Cc1c[nH]c2ccccc12 [10d, Trp-His[1-(3,5-di-tert-butylbenzyl)-5-iodo]-OMe] | non-hemolytic | 50.53 µg/mL | >100 µg/mL | prominent red fluorescence | 4.01 mg/L (≈ 5.87 µM) | >35.2 mg/L | >64.0 mg/L | prominent green fluorescence | >35.2 mg/L | >64.0 mg/L | >35.2 mg/L | >64.0 mg/L | >35.2 mg/L | >64.0 mg/L | >35.2 mg/L | >64.0 mg/L | > 100 mg/L | complete lysis of the cell membrane | highly shrunken cells with irregular cell membranes | fragmented bright blue fluorescence | IC50 [3]: 2.20 mg/L (≈ 3.22 µM); IC50 [13]: >35.2 mg/L; MIC [13]: >64.0 mg/L; CC50 at 18 h [14]: > 100 mg/L; Cytotoxic nature [15]: non-cytotoxic; Time after which growth/CFUs of cryptococcal cells dropped or were inhibited [16]: 12 h |
